From US8148404B2, “Modulators of CB1 receptors” (7TM Pharma A/S, priority 2006, dated 2012)
pIC50: −log10 of the molar value.

What follows are molecules tested against T1, human CB1 receptor (Homo sapiens, UniProt P21554) (assay: Cannabinoid Receptor-1 functional assay: inhibition of CP55940-induced [35S]GTPγS binding to membranes of CHO-K1 cells expressing human CB1). Settings: 3 nM CP55940, [35S]GTPγS SPA, hCB1 membranes; read-out: IC50 value for antagonizing a CB1 receptor agonist.
T1 construct: expressed in transfected cells; membranes used
Type: biochemical
Text: Transfection and Cell Culture—The cDNA encoding the human CB1 (Cannabinoid Receptor-1) receptor (GenBank accession number NM_016083) was cloned from a human adipose tissue cDNA library and cloned into the eukaryotic expression vector pcDNA3.1 (Invitrogen).
Chinese Hamster Ovary cells (CHO-K1) stably expressing recombinant human CB1 were generated by transfecting the plasmid containing the coding sequence of the human CB1 receptor in CHO-K1 cells, using lipofectamin, according to the manufacturer instructions. Resistant clones were selected in the presence of 600 μg/ml G418 (Life technology). Stably transfected CHO-K1 cells were maintained in Ham's F-12 culture medium (Invitrogen), supplemented with 10% fetal calf serum (Invitrogen), 100 U/ml penicillin, 100 μg/ml streptomycin (Life Technology), and 600 μg/ml G418.
Functional activities of the above examples of compounds of the invention were assessed in vitro by measuring their ability to inhibit CP55940-induced [^35S]GTPγS binding to membranes prepared from CHO-K1 cells expressing the human CB1 receptor (described in Transfection and Cell Culture). CP55940 is a well known non-selective CB1 and CB2 receptor agonist (e.g Felder et al., 1995, Molecular Pharmacology, (48) 443-50). Membranes were prepared by a standard procedure. Briefly, cells were harvested using 10 mM EDTA and collected by centrifugation. Pelleted cells were homogenized in ice-cold 20 mM Hepes (pH 7.4), 10 mM EDTA and protease inhibitors (Complete protease inhibitor cocktail tablet, Roche) using an Ultra Turrax Homogenizer. The homogenate was centrifuged at 14 000 rpm for 45 min. at 4° C. The resultant pellet was resuspended in the same buffer but with only 0.1 mM EDTA and was again centrifuged at 14 000 rpm for 45 min. at 4° C. The resulting pellet (membranes) was resuspended in 20 mM Hepes (pH 7.4), 0.1 mM EDTA, 2 mM MgCl2 and protease inhibitors and protein concentration was determined by Micro BCA Protein Assay Reagent Kit (Pierce Biotechnology) according to the manufacturer instructions. The [^35S]GTPγS SPA (Scintillation Proximity Assay) binding assay was performed by incubating 5 μg/well hCB1-membranes with 1 nM [^35S]GTPγS (Perkin Elmer—NEG 030H) in the presence of 3 nM of CP55940 and various concentrations of the test compounds at room temperature for 1 hr in 96-well microtiter plates. 0.4 mg/well SPA beads (PVT-WGA; RPNQ0001 Amersham Pharmacia Biotech) were then added and the incubation continued for further 30 min. on an orbital shaker. The assay buffer contained 50 mM HEPES (pH 7.5), 50 mM NaCl, 2.5 mM MgCl2, 0.1% BSA, 1 μM GDP and 100 μg/ml Saponin. Microtiter plates were centrifuged at 1500 rpm for 5 min. and radioactivity was read immediately using a Topcounter (PerkinElmer Life Sciences). Data were analyzed and IC50 values determined by non-linear regression using the Prism software (GraphPad Software, San Diego).

T1 sequence (P21554 whole entry): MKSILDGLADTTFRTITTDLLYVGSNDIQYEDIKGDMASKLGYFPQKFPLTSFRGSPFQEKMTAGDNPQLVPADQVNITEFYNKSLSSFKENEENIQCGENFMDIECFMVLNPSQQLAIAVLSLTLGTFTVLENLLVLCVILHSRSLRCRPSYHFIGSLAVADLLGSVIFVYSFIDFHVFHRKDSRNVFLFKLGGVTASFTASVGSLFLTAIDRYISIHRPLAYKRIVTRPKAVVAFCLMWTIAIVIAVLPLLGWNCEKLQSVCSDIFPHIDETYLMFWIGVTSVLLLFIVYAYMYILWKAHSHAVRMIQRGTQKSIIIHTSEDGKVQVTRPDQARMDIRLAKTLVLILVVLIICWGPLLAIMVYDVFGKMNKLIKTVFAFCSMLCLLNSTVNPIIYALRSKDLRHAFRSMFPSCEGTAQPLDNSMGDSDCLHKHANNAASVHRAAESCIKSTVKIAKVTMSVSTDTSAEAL

pIC50 | SMILES
> 6.52 | O=C(O)Cc1c(C(=O)N2CCC(c3cccs3)CC2)nn(-c2ccccc2Cl)c1-c1ccc(Cl)cc1 [[1.23], [5-(4-Chloro-phenyl)-1-(2-chloro-phenyl)-3-(4-thiophen-2-yl-piperidine-1-carbonyl)-1H-pyrazol-4-yl]-acetic acid]
> 6.52 | O=C(O)Cc1c(C(=O)N2CCC(O)(c3csc(Br)n3)CC2)nn(-c2ccccc2Cl)c1-c1ccc(Cl)cc1 [[1.24], [3-[4-(2-Bromo-thiazol-4-yl)-4-hydroxy-piperidine-1-carbonyl]-5-(4-chloro-phenyl)-1-(2-chloro-phenyl)-1H-pyrazol-4-yl]-acetic acid]
> 6.52 | O=C(O)Cc1c(C(=O)N2CCC(O)(c3cccc(F)c3F)CC2)nn(-c2ccccc2Cl)c1-c1ccc(Cl)cc1 [[1.25], {5-(4-Chloro-phenyl)-1-(2-chloro-phenyl)-3-[4-(2,3-difluoro-phenyl)-4-hydroxy-piperidine-1-carbonyl]-1H-pyrazol-4yl}-acetic acid]
> 6.52 | O=C(O)Cc1c(C(=O)N2CCC(c3ccc(F)cc3F)CC2)nn(-c2ccccc2Cl)c1-c1ccc(Cl)cc1 [[1.26], {1-(2-Chloro-phenyl)-5-(4-chloro-phenyl)-3-[4-(2,4-difluoro-phenyl)-piperidine-1-carbonyl]-1H-pyrazol-4-yl}-acetic acid]
> 6.52 | O=C(O)Cc1c(C(=O)N2CCC(c3ccccc3F)CC2)nn(-c2ccccc2Cl)c1-c1ccc(Cl)cc1 [[1.27], {1-(2-Chloro-phenyl)-5-(4-chloro-phenyl)-3-[4-(2-fluoro-phenyl)-piperidine-1-carbonyl]-1H-pyrazol-4-yl}-acetic acid]
> 6.52 | O=C(O)Cc1c(C(=O)N2CCC(c3ccc(C(F)(F)F)cc3)CC2)nn(-c2ccccc2Cl)c1-c1ccc(Cl)cc1 [[1.28], {1-(2-Chloro-phenyl)-5-(4-chloro-phenyl)-3-[4-(4-trifluoromethyl-phenyl)-piperidine-1-carbonyl]-1H-pyrazol-4-yl}-acetic acid]
> 6.52 | O=C(O)Cc1c(C(=O)N2CCC(c3ccc(Cl)cc3)CC2)nn(-c2ccccc2Cl)c1-c1ccc(Cl)cc1 [[1.29], {1-(2-Chloro-phenyl)-5-(4-chloro-phenyl)-3-[4-(4-chloro-phenyl)-piperidine-1-carbonyl]-1H-pyrazol-4-yl}-acetic acid]
5.00 to 5.52 | O=C(O)Cc1c(C(=O)N2CCC(c3cccc(C(=O)O)c3)CC2)nn(-c2ccccc2Cl)c1-c1ccc(Cl)cc1 [[1.30], 3-{1-[4-Carboxymethyl-1-(2-chloro-phenyl)-5-(4-chloro-phenyl)-1H-pyrazole-3-carbonyl]-piperidin-4-yl}-benzoic acid]
> 6.52 | O=C(O)Cc1c(C(=O)N2CCC(c3cccc(Cl)c3)CC2)nn(-c2ccccc2Cl)c1-c1ccc(Cl)cc1 [[1.31], {1-(2-Chloro-phenyl)-5-(4-chloro-phenyl)-3-[4-(3-chloro-phenyl)-piperidine-1-carbonyl]-1H-pyrazol-4-yl}-acetic acid]
5.52 to 6.52 | O=C(O)Cc1c(C(=O)N2CCC(c3ccncc3)CC2)nn(-c2ccccc2Cl)c1-c1ccc(Cl)cc1 [[1.32], [1-(2-Chloro-phenyl)-5-(4-chloro-phenyl)-3-(3,4,5,6-tetrahydro-2H-[4,4′]bipyridinyl-1-carbonyl)-1H-pyrazol-4-yl}-acetic acid]
> 6.52 | O=C(O)Cc1c(C(=O)N2CCC(c3ccccc3)CC2)nn(-c2ccccc2Cl)c1-c1ccc(Cl)cc1 [[1.33], [1-(2-Chloro-phenyl)-5-(4-chloro-phenyl)-3-(4-phenyl-piperidine-1-carbonyl)-1H-pyrazol-4-yl]-acetic acid]
> 6.52 | N#Cc1cccc(C2CCN(C(=O)c3nn(-c4ccccc4Cl)c(-c4ccc(Cl)cc4)c3CC(=O)O)CC2)c1 [[1.34], {1-(2-Chloro-phenyl)-5-(4-chloro-phenyl)-3-[4-(3-cyano-phenyl)-piperidine-1-carbonyl]-1H-pyrazol-4-yl}-acetic acid]
> 6.52 | O=C(O)Cc1c(C(=O)N2CCC(c3cc(Cl)cc(Cl)c3)CC2)nn(-c2ccccc2Cl)c1-c1ccc(Cl)cc1 [[1.35], {1-(2-Chloro-phenyl)-5-(4-chloro-phenyl)-3-[4-(3,5-dichloro-phenyl)-piperidine-1-carbonyl]-1H-pyrazol-4-yl}-acetic acid]
> 6.52 | O=C(O)Cc1c(C(=O)N2CCC(c3cc(F)cc(F)c3)CC2)nn(-c2ccccc2Cl)c1-c1ccc(Cl)cc1 [[1.36], {1-(2-Chloro-phenyl)-5-(4-chloro-phenyl)-3-[4-(3,5-difluoro-phenyl)-piperidine-1-carbonyl]-1H-pyrazol-4-yl}-acetic acid]
> 6.52 | COc1cccc(C2CCN(C(=O)c3nn(-c4ccccc4Cl)c(-c4ccc(Cl)cc4)c3CC(=O)O)CC2)c1 [[1.37], {1-(2-Chloro-phenyl)-5-(4-chloro-phenyl)-3-[4-(3-methoxy-phenyl)-piperidine-1-carbonyl]-1H-pyrazol-4-yl}-acetic acid]
> 6.52 | O=C(O)Cc1c(C(=O)N2CCCC2c2ccc(C(F)(F)F)cc2)nn(-c2ccccc2Cl)c1-c1ccc(Cl)cc1 (stereo not shown) [[1.38], {1-(2-Chloro-phenyl)-5-(4-chloro-phenyl)-3-[2-(4-trifluoromethyl-phenyl)-pyrrolidine-1-carbonyl]-1H-pyrazol-4-yl}-acetic acid]
> 6.52 | O=C(O)Cc1c(C(=O)N2CCC(c3ccc(C(F)(F)F)cc3)C2)nn(-c2ccccc2Cl)c1-c1ccc(Cl)cc1 (stereo not shown) [[1.39], {1-(2-Chloro-phenyl)-5-(4-chloro-phenyl)-3-[3-(4-trifluoromethyl-phenyl)-pyrrolidine-1-carbonyl]-1H-pyrazol-4-yl}-acetic acid]
> 6.52 | O=C(O)Cc1c(C(=O)N2CCC(c3cccc(C(F)(F)F)c3)CC2)nn(-c2ccccc2Cl)c1-c1ccc(Cl)cc1 [[1.40], {1-(2-Chloro-phenyl)-5-(4-chloro-phenyl)-3-[4-(3-trifluoromethyl-phenyl)-piperidine-1-carbonyl]-1H-pyrazol-4-yl}-acetic acid]
5.52 to 6.52 | COC[C@@H]1CCCN1C(=O)c1nn(-c2ccccc2Cl)c(-c2ccc(Cl)cc2)c1CC(=O)O [[1.41], [1-(2-Chloro-phenyl)-5-(4-chloro-phenyl)-3-((S)-2-methoxymethyl-pyrrolidine-1-carbonyl)-1H-pyrazol-4-yl]-acetic acid]
> 6.52 | O=C(O)Cc1c(C(=O)N2CCC(O)(c3ccc(F)c(C(F)(F)F)c3)CC2)nn(-c2ccccc2Cl)c1-c1ccc(Cl)cc1 [[1.42], {1-(2-Chloro-phenyl)-5-(4-chloro-phenyl)-3-[4-(4-fluoro-3-trifluoromethyl-phenyl)-4-hydroxy-piperidine-1-carbonyl]-1H-pyrazol-4-yl}-acetic acid]
> 6.52 | O=C(O)Cc1c(C(=O)N2CCC(O)(c3ccc(F)c(Cl)c3)CC2)nn(-c2ccccc2Cl)c1-c1ccc(Cl)cc1 [[1.43], [3-[4-(3-Chloro-4-fluoro-phenyl)-4-hydroxy-piperidine-1-carbonyl]-1-(2-chloro-phenyl)-5-(4-chloro-phenyl)-1H-pyrazol-4-yl]-acetic acid]
5.52 to 6.52 | O=C(O)Cc1c(C(=O)N2CC[C@H](c3ccccc3)[C@@H](O)C2)nn(-c2ccccc2Cl)c1-c1ccc(Cl)cc1 [[1.44], [1-(2-Chloro-phenyl)-5-(4-chloro-phenyl)-3-((3R,4R)-3-hydroxy-4-phenyl-piperidine-1-carbonyl)-1H-pyrazol-4-yl]-acetic acid]
> 6.52 | N#Cc1ccc(C2CCN(C(=O)c3nn(-c4ccccc4Cl)c(-c4ccc(Cl)cc4)c3CC(=O)O)CC2)cc1 [[1.45], {1-(2-Chloro-phenyl)-5-(4-chloro-phenyl)-3-[4-(4-cyano-phenyl)-piperidine-1-carbonyl]-1H-pyrazol-4-yl}-acetic acid]
5.52 to 6.52 | O=C(O)Cc1c(C(=O)N2CCCC2)nn(-c2ccccc2Cl)c1-c1ccc(Cl)cc1 [[1.46], [1-(2-Chloro-phenyl)-5-(4-chloro-phenyl)-3-(pyrrolidine-1-carbonyl)-1H-pyrazol-4-yl]-acetic acid]
5.52 to 6.52 | O=C(O)Cc1c(C(=O)N2CCCCC2)nn(-c2ccccc2Cl)c1-c1ccc(Cl)cc1 [[1.47], [1-(2-Chloro-phenyl)-5-(4-chloro-phenyl)-3-(piperidine-1-carbonyl)-1H-pyrazol-4-yl]-acetic acid]
